Where two headings read alike, the source gives them in different places.
Columns and labels:
[1] = tested on: C57BL/6 mice; experiment: Oral glucose tolerance test with hormone measurement; type: in vivo, mouse; settings: 30 mg/kg oral, glucose 3 g/kg
Protocol: For measurement of glucose only, overnight-fasted C57BL/6 mice in a normal light cycle were orally dosed with vehicle or compound, followed by an oral bolus of 3 g/kg glucose at 15 minutes post compound. At 0, 20, 40, 60, and 120 minutes post glucose dose, blood glucose was assessed via glucometers. Resulting raw data was used to generate AUCs. For measurement of hormones and glucose, overnight-fasted C57BL/6 mice acclimated for two weeks to a reverse light cycle were orally dosed with vehicle or compound, followed by an oral bolus of 3 g/kg glucose at 15 minutes post compound. At 0, 2, 5, 10, 20, 40, and 60 minutes post glucose dose, blood glucose was assessed via glucometers, followed immediately by collection of plasma for active GLP-1 (Mesoscale Discovery), insulin (Mesoscale Discovery), and total PYY. Glucose tolerance tests in diet-induced obese (DIO) C57BL/6 mice were performed in overnight-fasted animals dosed either acutely or after 2-week administration with vehicle or compound 18 at 60 mg/kg, followed 30 minutes post compound by an oral bolus of 2 g/kg glucose. At 0, 15, 30, 60, and 120 minutes post glucose dose, blood glucose was assessed via glucometers. Resulting raw data was used to generate AUCs.
To evaluate glucose, insulin, GLP-1, and PYY levels throughout the OGTT, each time-point consisted of a separate group of mice that were used to record glucose by use of a glucometer followed by terminal bleeds for measurement of active GLP-1, total PYY, and insulin. AUCs were then calculated for the entire hour of the OGTT. […] Changes in insulin AUCs were not increased with treatment of either sitagliptin or compound 18, likely due to the lower glucose levels reducing the drive for glucose-stimulated insulin secretion (Fig 5D).
Fig 5 Compound 18 increases GLP-1 and PYY and lowers the glucose and insulin excursions as compared to sitagliptin in an OGTT in C57BL/6 mice. […] Plasma was analyzed for active GLP-1 (A), total PYY (B), and insulin (D), while blood glucose was measured by glucometers (C).

[2] = tested on: STC-1 cells; experiment: GLP-1 secretion in STC-1 enteroendocrine cells; type: cell-based; settings: Mus musculus
Protocol: (§1) HEK-293 cells were obtained from ATCC and a clonal HEK-293 line overexpressing mouse TGR5 was prepared. Both were maintained in Dulbecco’s modified Eagle’s medium (DMEM) containing 10% fetal bovine serum (FBS) and penicillin /streptomycin. Mouse STC-1 cells were obtained from ATCC under agreement with the Cold Spring Harbor Laboratories and maintained in DMEM containing 10% FBS and penicillin /streptomycin. NCI-H716 cells were obtained from ATCC and were maintained in RPMI-1640 with 10% FBS. NCI-H716 cells were cultured in 96 well plate coated with Matrigel (BD). After 72 hours, cAMP production stimulated with TGR5 agonists was measured using HTRF cAMP assay kit (CISBIO). The level of cAMP in suspensions of STC-1 cells stimulated with increasing concentrations of TGR5 agonists was also determined. […] The production of GLP-1 was determined using a GLP-1 Assay (7–36) amide kit (Mesoscale Discovery) following the manufacturer’s instructions. […]
(§2) Compound 18 is a novel small molecule agonist of TGR5 developed by Eli Lilly and Company (MW = 508.62, Fig 2A). […] In order to determine potency of compound 18 for the mouse and human TGR5 receptor in cells with endogenous levels of receptor, we measured compound 18-stimulated cAMP production and GLP-1 secretion in both mouse (STC-1) and human (NCI-H716) enteroendocrine cell lines, that we have shown to express TGR5 natively (Fig 1). […]

[3] = tested on: Tgr5 KO mice; experiment: Three-day study on GLP-1, PYY and bile weight in Tgr5 KO mice; settings: 100 mg/kg oral BID 3 days, 30 min after last dose
Protocol: C57BL/6 mice, Tgr5 KO mice, or their wild-type littermate controls were orally dosed with vehicle or compounds twice per day for 3 days, with overnight fasting performed on the evening of day 2. On the morning of day 3, animals were dosed orally with compounds and then euthanized by CO2 asphyxiation at 30 minutes after the fifth dose. Plasma was collected for analysis of GLP-1 (X-36) amide as mentioned above, followed immediately by incision into the abdominal cavity to remove and weigh bile from the gallbladder.

[4] = tested on: NCI-H716 cells; experiment: GLP-1 secretion in NCI-H716 enteroendocrine cells; type: cell-based; settings: Homo sapiens
Protocol: as §1, §2

[5] = tested on: C57BL/6 mice; experiment: Oral glucose tolerance test, glucose only; settings: oral 1-100 mg/kg tested, glucose 3 g/kg 15 min after compound
Protocol: For measurement of glucose only, overnight-fasted C57BL/6 mice in a normal light cycle were orally dosed with vehicle or compound, followed by an oral bolus of 3 g/kg glucose at 15 minutes post compound. At 0, 20, 40, 60, and 120 minutes post glucose dose, blood glucose was assessed via glucometers. Resulting raw data was used to generate AUCs. […] At 0, 15, 30, 60, and 120 minutes post glucose dose, blood glucose was assessed via glucometers. Resulting raw data was used to generate AUCs.

**Q.** Which results are given for `CC(=O)N1CCC(C(C)N(C(=O)COc2cccc3sc4nc(C)cn4c23)c2ccc(F)cc2)CC1` (centres unmarked) [compound 18]?
**A.** AUC of active GLP-1 during OGTT ([1]; 1 hour): superior AUC for active GLP-1 above both vehicle and sitagliptin; AUC of total PYY during OGTT ([1]; 1 hour): higher increase in the AUC of total PYY above both vehicle and sitagliptin; insulin AUC during OGTT ([1]; 1 hour): not increased; glucose excursion during OGTT ([1]; versus sitagliptin 10 mg/kg): levels indistinguishable from those of sitagliptin-treated animals; EC50 ([2]; read-out: EC50, GLP-1 secretion): 307 nM; EC50 ([2]; unit inferred, x-axis in nM, read-out: EC50 STC-1 (Fig 2D inset, GLP-1 secretion)): 307 nM; GLP-1 [3]: no detectable increase; PYY [3]: no detectable increase; bile weight [3]: no detectable increase; EC50 [4]: 2660 nM; doses that reduce glucose excursions in OGTT [5]: ≥ 30 mg/kg
